The text below walks through data of patent US11360104B2, “Microbial-based biosensors” (TRUSTEES OF BOSTON UNIVERSITY, priority 2017, dated 2022).

In series [1] the test system is Pimelobacter simplex PinR (AIY20223.2; SEQ ID NO: 1), his-tagged (AIY-his6). Description: QD-FRET steroid sensor (QD-PinR + DNA-Cy5), steroid-induced TF-DNA unbinding. Type of series: biochemical. Conditions: sensor 3 in HEPES 1×; 0 to 10 uM steroid. The protocol: (§1) Fluorescent spectra were analyzed using MATLAB (Mathworks) and were fitted with a sum of 2 Gaussians (D=QD: FWHM=27 nm, λmax=607 nm; A=DNA-Cy5: FWHM=40 nm, λmax=669 nm). The area of each Gaussian was extracted and FD and FA are obtained respectively for the fluorescence of QD (donor) and Cy5 (acceptor).
Raw dose-response curves were obtained by plotting FA/FD as a function of the steroid concentration. Sensor output is the normalization of the fluorescent spectra of the donor and acceptor according to the following equation: […]
Non-normalized dose-response were fitted with Origin Pro 8 software with the non-linear equation: […]
The cross-reactivity of progesterone regarding the different steroids was calculated with the following equation: […]
CdSe/CdS/ZnS QDs were coated with a zwitterionic polymer bearing histamine anchoring functions (P1, SI). Once the hydrophobic QDs were transferred into H2O using a biphasic ligand exchange, his-tagged TFs were self-assembled on the QD surface to produce the QD-TF. Addition of the double stranded, Cy5-labeled TF-binding sequence completed probe assembly as the oligo binds to the TF in the absence of progesterone (PRG). The molar ratios of the QD, TF, and DNA in the sensor were controlled through the stoichiometric ratios of the mixed parts.
Two fluorescent spectra were recorded, one from the QDs and one from the Cy5 due to the FRET.
First, the DNA1 (most binding sequence) has been used to build the first biosensor, named sensor 1. For this sensor, a ratio of QD/TF/DNA of 1/4/18 was chosen. […] In order to homogenize the fluorescent signals in between batches and different sensor variations, FA/FD was normalized to give the signal output. Signal output is then plotted against PRG concentration to give a dose-response curve (FIG. 9C) This curve was fitted with the non-linear equation XX to obtain the half-maximal inhibitory concentration (IC50) (Table 13).
(§2) Description for a typical experiment, using a molar ratio of QD/TF/DNA=1/4/18. QDs in (275 uL, 0.15 uM in HEPES 1×, pH 7.6 with 1% BSA) were mixed with AIY-his6 (275 uL, 0.6 uM in HEPES 1× pH 7.6) at room temperature for 45 min. Then, the double-stranded DNA labelled with a Cy5 fluorescent probe at the 3′ and 5′ ends (275 uL, 2.7 uM in HEPES 1× pH 7.6) was added to the mixture. After 30 min, 220 uL of HEPES 1× pH 7.5 and 330 uL of 5× binding buffer (25 mM MgCl2, 25% glycerol, and 250 mg/L Invitrogen™ UltraPure™ Salmon Sperm DNA in Tris-HCl 0.1M) were added and the mixture is left 15 more min at RT.
(§3) 50 uL of the sensor (QD/TF/DNA) was then splitted in 3×9 centrifuge tubes to which 10 uL of progesterone at the desired concentration is added. As such, the final concentration of QD/TF/DNA for the measurements is 25 nM/100 nM/450 nM. A 384 well plate was filled with 60 uL of each solution. The fluorescence intensity was monitored on a spectrofluorimeter from 535 nm to 800 nm exciting at 400 nm, equipped with a 450 nm long-pass filter in emission.

In another series the target is PinR (Nocardioides simplex (Pimelobacter simplex), UniProt A0A0A1DUF2). The experiment in a line: Cross-reactivity assay of steroids using sensor 3. Type of series: biochemical. Conditions: sensor 3, HEPES 1×, 0 to 10 uM of steroids. The protocol: The cross-reactivity of progesterone regarding the different steroids was calculated with the following equation:
Description for a typical experiment, using a molar ratio of QD/TF/DNA=1/4/18.
50 uL of the sensor (QD/TF/DNA) was then splitted in 3×9 centrifuge tubes to which 10 uL of progesterone at the desired concentration is added. […] A 384 well plate was filled with 60 uL of each solution. The fluorescence intensity was monitored on a spectrofluorimeter from 535 nm to 800 nm exciting at 400 nm, equipped with a 450 nm long-pass filter in emission.

The nature of series [2]: QD-FRET sensor progesterone titration in HEPES 1×. It counts as biochemical. The protocol:
as §1
Raw dose-response curves were obtained by plotting FA/FD as a function of the steroid concentration. Sensor output is the normalization of the fluorescent spectra of the donor and acceptor according to the following equation:
[formula] Where F=FA/FD, Fi is for [PRG]=i, Fmin stands for the average on 3 experiments of F for [PRG]=0 nM and Fmax stands for the average on 3 experiments of F for [PRG]=10 uM.
Non-normalized dose-response were fitted with Origin Pro 8 software with the non-linear equation:
Mathematically, the limit of detection in the signal domain (LD) is given by:LD=meanblank−3.3×σtest LD=meanblank−3.3×σtest where meanblank is the mean signal for a reagent blank and σtest is the pool standard deviation for all test samples in the dilution series, calculated as[9]:
Then the Limit of detection (LOD) is calculated using the parameters of the fit with the non-linear equation (XX) for y=LD:
as §2, §3

The next series deals with Pimelobacter simplex. The experiment in a line: Solvent and steroid exposure growth curves. An excerpt: In order to identify steroid binding Transcription Factors, a whole transcriptome RNA sequencing (RNA-Seq) screen was developed (FIG. 7). The growth of Pimelobacter simplex bacteria was profiled with respect to the starting inoculation density, solvent toxicity, and the addition of steroids (FIG. 16). […] P. simplex bacteria were screened against the steroid solvents ethanol (EtOH) and dimethyl sulfoxide (DMSO). […] Steroid growth curves were similarly performed using a starting OD of 0.005 and constant solvent dosing with titrations of steroids. […] P. simplex bacteria were grown in the presence of 700 μM testosterone, 21.88 μM progesterone, 87.50 μM estrone, 21.88 μM 17β-estradiol, 21.88 μM hydrocortisone, or 175.00 μM aldosterone concentrations were selected for comparison.
In order to properly determine the doubling time of the strain, growth curves were performed. All growth curves were done in 100 μL per well volumes in 96 well flat clear bottom black polystyrene TC-treated microplates which were individually wrapped with a lid and sterile (Corning #3603). Measurements were done by an Infinite M200 Pro (TECAN) spectrophotometer at the temperature suited for P. simplex. Readings were performed over 96 cycles of 15 minutes each at 600 nm absorbance with 25 flashes in a 3×3 (XY-Line) type reads per well. In between reads there was orbital shaking at 150 rpm frequency for a total of 10 minutes. In order to characterize the growth alone, a ½ serial dilution of 9 concentrations from 0.5-0.0020 OD600 nm were prepared in the respective media. Then each concentration was measured as previously described using a microplate reader (TECAN) and normalized against a media background control in technical triplicate. Afterward, an appropriate starting concentration of cells was chosen with a substantially long lag-phase, linear log phase, and a plateau of stationary-phase.
Once an appropriate starting cell concentration was chosen, a secondary growth curve was performed to test the toxicity levels of the solvents used to dissolve steroids of interest. Since the steroids used are heavily hydrophobic, they often need to be dissolved in organic solvents such as DMSO or ethanol which are toxic to bacteria at high concentrations. P. simplex was incubated under microplate reader conditions previously mentioned at a starting OD determined by the first growth curve with DMSO, ethanol, or H2O at ½ serial dilutions for a total of eight concentrations (50-0.39%) tested in technical triplicate. Two controls were included per solvent; a positive control without solvent and a media control which allowed for appropriate normalization. Solvent exposure growth curves allowed for choosing the maximum amount of solvent concentration that strains would sustain while maintaining relative viability in order to determine a range of steroid concentrations which could be used.
A tertiary growth curve was performed to test the toxicity levels of steroid specific to P. simplex. The strain was incubated under microplate reader conditions previously mentioned at a starting OD determined by the first growth curve and the highest solvent concentration corresponding to the steroid of interest with steroid at ½ serial dilutions for a total of seven concentrations tested in singlet. Testosterone, progesterone, 17β-estradiol, hydrocortisone, and aldosterone were all dissolved in ethanol while estrone was dissolved in DMSO. Three controls were included for each steroid; a positive control with the highest tolerable solvent concentration (%), a positive control with media, and a media control which allowed for normalization. Steroid exposure growth curves allowed for choosing the maximum amount of steroid concentration that P. simplex would sustain while maintaining relative viability.

Where two headings read alike, the source gives them in different places. {Cy5} = Cy5 fluorescent dye attached at the strand end

PinR, sequence (A0A0A1DUF2 entry or part of it): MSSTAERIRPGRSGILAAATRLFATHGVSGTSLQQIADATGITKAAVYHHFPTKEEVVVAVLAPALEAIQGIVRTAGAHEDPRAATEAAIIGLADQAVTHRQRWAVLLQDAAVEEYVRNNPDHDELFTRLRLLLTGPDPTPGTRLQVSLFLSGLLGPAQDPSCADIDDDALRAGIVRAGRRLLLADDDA

Turning to `C[C@H](O)[C@H]1CC[C@H]2[C@@H]3CC[C@@H]4C[C@H](O)CC[C@]4(C)[C@H]3CC[C@]12C` [PRE, 5β-Pregnane-3α,20-α-diol], the “cross-reactivity (in words)” value in series [1] is “No cross-reactivity was observed”. Besides, the cross-reactivity entry at PinR is recorded as “No cross-reactivity”.

For “DNA1: Cy5-labelled PinR binding probe 5Cy5-GCCTAACTAGCCGTTCGGCTAGTTATTC-3Cy5 (SEQ ID NO: 24) (DNA, 5' {Cy5}, 3' {Cy5}, backbone and methylation of C not given here; hybridized with complementary strand to form double-stranded fluorescent oligo)”, the “[Pro]min” value in series [2] (QD/TF/DNA=1/4/18, [QD]=25 nM) stood at 0.073 µM.

Regarding “DNA3: Cy5-labelled PinR binding probe 5Cy5-GCCTAACTAGCCGTTCGGCAAGTAATTC-3Cy5 (SEQ ID NO: 28) (DNA, 5' {Cy5}, 3' {Cy5}, backbone and methylation of C not given here; hybridized with complementary strand to form double-stranded fluorescent oligo)”, the “[Pro]min” value is 0.040 µM in series [2] (DNA 3, QD/TF/DNA 1/1/2); 0.072 µM in series [2] (DNA 3, QD/TF/DNA 1/1/18); 0.053 µM in series [2] (DNA 3, QD/TF/DNA 1/2/2); 0.070 µM in series [2] (DNA 3, QD/TF/DNA 1/2/18); 0.050 µM in series [2] (DNA 3, QD/TF/DNA 1/4/2); 0.040 µM in series [2] (DNA 3, QD/TF/DNA 1/4/18). Also, the “[Pro]min” value in series [2] (DNA 3, QD/TF/DNA 1/10/18) was 0.065 µM; in series [2] (DNA 3, QD/TF/DNA 1/16/18), 0.075 µM; in series [2] (QD/TF/DNA=1/4/18, [QD]=25 nM) it was 0.040 µM.

With `CCO` [EtOH, ethanol], in the series with Pimelobacter simplex, the “highest solvent concentration that did not produce a physiological change in growth” value was found to be 0.70 % by volume.

`C[C@H](O)[C@H]1CC[C@H]2[C@@H]3CC[C@@H]4C[C@H](O[C@@H]5O[C@H](C(=O)O)[C@@H](O)[C@H](O)[C@H]5O)CC[C@]4(C)[C@H]3CC[C@]12C` [PRE-glu, 5β-Pregnane-3α,20-α-diol glucuronide]: the “cross-reactivity (in words)” value in series [1] was “No cross-reactivity was observed”. Further, the cross-reactivity entry at PinR is “No cross-reactivity”.

With `C[S+](C)[O-]` [DMSO, dimethyl sulfoxide], the “highest solvent concentration that did not produce a physiological change in growth” value in the series with Pimelobacter simplex (P. simplex vs solvent-free control) was 0.35 % by volume.

In the case of “DNA4: Cy5-labelled PinR binding probe 5Cy5-CCTTAACTAGCCGTTCTGTTAGTTATT C-3Cy5 (SEQ ID NO: 30) (DNA CCTTAACTAGCCGTTCTGTTAGTTATTC; DNA, 5' {Cy5}, 3' {Cy5}, backbone and methylation of C not given here; hybridized with complementary strand to form double-stranded fluorescent oligo)”, the “[Pro]min” value came out at 0.024 µM in series [2] (DNA 4, QD/TF/DNA 1/1/4); 0.017 µM in series [2] (DNA 4, QD/TF/DNA 1/1/18); 0.066 µM in series [2] (DNA 4, QD/TF/DNA 1/4/9); 0.044 µM in series [2] (DNA 4, QD/TF/DNA 1/4/18); 0.190 µM in series [2] (DNA 4, QD/TF/DNA 1/16/8); 0.044 µM in series [2] (QD/TF/DNA=1/4/18, [QD]=25 nM).

As for `CC(C)CCC[C@@H](C)[C@H]1CC[C@H]2[C@@H]3CC=C4C[C@@H](O)CC[C@]4(C)[C@H]3CC[C@]12C` [CHL, Cholesterol], the “cross-reactivity (in words)” value in series [1] is “No cross-reactivity was observed”. Further, at PinR, the cross-reactivity entry is “No cross-reactivity”.

Regarding “DNA2: Cy5-labelled PinR binding probe 5Cy5-GCCTAACTAGCCGATCGGCTAGTCATTC-3Cy5 (SEQ ID NO: 26) (DNA, 5' {Cy5}, 3' {Cy5}, backbone and methylation of C not given here; hybridized with complementary strand to form double-stranded fluorescent oligo)”, the “[Pro]min” value in series [2] (QD/TF/DNA=1/4/18, [QD]=25 nM) is 0.051 µM.
